From PubChem BioAssay AID1259375 (The Scripps Research Institute Molecular Screening Center, 2018)
The source made the active and inactive calls. How the calls were made is not given here.

target: Microphthalmia-associated transcription factor (Homo sapiens) (UniProt O75030); assay: MITF inhibitors by FRET titration, dose response, biochemical, high throughput (AID 1259375); conditions: FRET biochemical assay, MITF inhibition;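 further: FRET between CFP-tagged and YFP-tagged MITF protein partners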
Sequence (O75030 whole entry, looked up): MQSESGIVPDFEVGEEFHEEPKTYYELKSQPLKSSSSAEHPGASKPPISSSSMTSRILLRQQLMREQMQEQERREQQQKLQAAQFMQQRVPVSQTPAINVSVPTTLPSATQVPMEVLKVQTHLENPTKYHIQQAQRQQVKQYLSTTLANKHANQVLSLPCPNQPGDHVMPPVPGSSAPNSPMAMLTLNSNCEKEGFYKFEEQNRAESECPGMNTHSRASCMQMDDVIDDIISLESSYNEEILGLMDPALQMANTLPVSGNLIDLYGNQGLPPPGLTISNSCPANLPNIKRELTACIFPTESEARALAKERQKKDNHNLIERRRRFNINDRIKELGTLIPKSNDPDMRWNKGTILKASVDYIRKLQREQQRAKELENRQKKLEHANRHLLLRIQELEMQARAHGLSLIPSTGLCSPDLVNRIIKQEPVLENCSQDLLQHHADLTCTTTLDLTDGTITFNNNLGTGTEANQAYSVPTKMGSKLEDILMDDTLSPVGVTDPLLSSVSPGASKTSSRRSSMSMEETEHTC

Row | SMILES | IC50
1 | O=C1CCCC2=C1C(c1ccc([N+](=O)[O-])o1)C1=C(CCCC1=O)O2 | > 7.09 µM (inactive)
2 | CCN1CCc2c(sc(NC(=S)NC(=O)/C=C/c3ccco3)c2C(N)=O)C1 | > 6.48 µM (inactive)
3 | CCOC(=O)C1C2NC(=S)N(c3ccc(CC)cc3)C1(C)Oc1c(OCC)cccc12 (stereo not drawn) | > 5.53 µM (inactive)
4 | O=C(O)c1ccc(O)c(C=Nc2ccc(N=Cc3cc(C(=O)O)ccc3O)cc2)c1 | > 6.48 µM (inactive)
5 | COc1cc(-c2ccnc(N)n2)ccc1NC(=O)[C@H]1COc2ccccc2O1 | > 6.48 µM (inactive)
6 | C/C(=N\NC(=O)CC1=NNC(=O)C1)c1ccco1 | > 6.48 µM (inactive)
7 | COc1ccc(/C=C2\N=C(c3ccc4c(c3)OCO4)OC2=O)cc1Cl | > 5.41 µM (inactive)
8 | N#CC(C#N)=Cc1cccn1-c1ccc(C(=O)O)cc1 | > 6.48 µM (inactive)
9 | CCC(C)C(=O)NCc1nnc2n1CCN(C/C=C/c1ccco1)CC2 (stereo not drawn) | > 6.48 µM (inactive)
10 | O=C(O)CCC(NCc1ccco1)C(=O)O (stereo not drawn) | > 6.85 µM (inactive)
11 | CCOC(=O)C1C2NC(=S)N(CC)C1(C)Oc1ccc(Cl)cc12 (stereo not drawn) | > 8.6 µM (inactive)
12 | CC(=O)NCC(c1cccs1)S(=O)(=O)c1ccc(C)cc1 (stereo not drawn) | > 6.41 µM (inactive)
13 | Cc1ccc(/C(C#N)=C\c2ccco2)cc1 | > 6.48 µM (inactive)
14 | COc1cc2cc3c(N)c(C(=O)Nc4sc(C)c(C)c4C#N)sc3nc2cc1OC | > 6.48 µM (inactive)
15 | O=C(O)c1cccc(-n2cccc2/C=C\[N+](=O)[O-])c1 | > 6.48 µM (inactive)
16 | C=C1C(C(=O)NCc2ccco2)C1C(=O)NCc1ccco1 (stereo not drawn) | > 7.72 µM (inactive)
17 | O=c1[nH]cccc1-c1ccc(Nc2nccc(-c3ccc4nc(C5CC5)[nH]c(=O)c4c3)n2)cc1 | > 6.48 µM (inactive)
18 | O=C1S/C(=C\c2ccco2)C(=O)N1c1ccccc1Cl | inactive
19 | Cc1cc2c(c(=O)[nH]1)C(=O)O/C2=C\c1ccc(C)o1 | > 6.86 µM (inactive)
20 | COCCCNC(=O)/C(C#N)=C/c1ccc(-c2ccc(C(=O)O)c(Cl)c2)o1 | > 6.48 µM (inactive)
21 | CC(C)N(C)CCOC(=O)/C=C/c1ccco1 | > 6.48 µM (inactive)
22 | O=C(Nc1ccc(-c2cn[nH]c2)c(C(F)(F)F)c1)C1COc2ccccc2O1 (stereo not drawn) | > 6.48 µM (inactive)

Results, then the compound that gave them:

Row | IC50 | SMILES
23 | > 6.48 µM (inactive) | C[C@@H](OCc1ccccc1)[C@@H]1NC(=O)[C@H]2CN(C(=O)NCc3ccccc3)CCN2C1=O
24 | > 5.86 µM (inactive) | Clc1ccc(CN2CCN(Cc3c[nH]c4ccccc34)CC2)cc1
25 | > 7.13 µM (inactive) | O=C(OCN1C(=O)c2ccccc2C1=O)c1cc2c(s1)CCC2
26 | > 6.25 µM (inactive) | CC1CCC(N2CCN(Cc3ccco3)CC2)CC1 (stereo not drawn)
27 | > 6.48 µM (inactive) | C[C@H]1NC(=O)[C@H]2CN(C(=O)NCc3ccccc3)CCN2C1=O
28 | > 6.48 µM (inactive) | O=C(CCCCC1SCC2NC(=O)NC21)NC1(c2ccc3c(c2)OCO3)CCCC1 (stereo not drawn)
29 | > 6.48 µM (inactive) | CC[C@H](C)[C@@H]1NC(=O)[C@H]2CN(C(=O)Nc3cccc(F)c3)CCN2C1=O
30 | > 6.48 µM (inactive) | CC(C)[C@@H]1NC(=O)[C@H]2CN(C(=O)NCc3ccccc3)CCN2C1=O
31 | > 6.48 µM (inactive) | O=C(O)c1c2c(nc3ccc(S(=O)(=O)N4CCC(C(=O)O)CC4)cc13)CCC2
32 | > 6.11 µM (inactive) | COc1ccc(OC)c(CN2CCN(Cc3ccc(F)cc3)CC2)c1
33 | 2.99 µM | O=C(O)CCN(CCC(=O)O)c1ccc(O)cc1
34 | > 6.48 µM (inactive) | O=C1N[C@H](Cc2ccc(O)cc2)C(=O)N2CCN(C(=O)NC3CCCCC3)C[C@H]12
35 | > 6.48 µM (inactive) | CN(C)CCCNC(=O)c1cccc(CN(C(=O)c2nc3ccc(-c4cn[nH]c4)cc3s2)C2CC2)c1
36 | > 7.1 µM (inactive) | O=C(OC1CCOC1=O)c1ccc(S(=O)(=O)NCc2ccco2)cc1 (stereo not drawn)
37 | > 7.92 µM (inactive) | O=C1Nc2c(C(=O)O)cccc2C1=O
38 | > 6.48 µM (inactive) | O=C1N[C@H](Cc2ccc(O)cc2)C(=O)N2CCN(C(=O)NCc3ccccc3)C[C@H]12
